# Patent publication US7910577B2 (priority 2004, dated 2011)
# How the values were obtained:
# [1] = cited from earlier work
# [2] = particle size, Horiba LA 910 particle size analyzer; conditions: unmilled drug crystals, before incorporation into nanoparticulate formulation
structure (smiles),measurement,setting,value
"Cc1cc2c(s1)Nc1ccccc1N=C2N1CCN(C)CC1 [Olanzapine, 2-methyl-4-(4-methyl-1-piperazinyl) -10H-thieno[2,3-b][1,5]benzodiazepine]",solubility in water,[1],practically insoluble in water
same,mean particle size,[2],137.08 microns
